Measured values: the kinase profiling compilation of Christmann-Franck et al. (2016)
Several values for one entry are separate records, joined by “and”; a condition that tells them apart may be missing. Identical values can stand only once.

Key:
Experiment in all cases: radiometric filter-binding kinase assay, Kinase HotSpot
Conditions in all cases: compound 0.5 µM; ATP 10 µM
DMPK (human) = DMPK (human) (UniProt Q09013)
CAMK4 (human) = CAMK4 (human) (UniProt Q16566)
PDGFRA (human) = PDGFRA (human) (UniProt P16234)
AKT1 (human) = AKT1 (human) (UniProt P31749)
PRKD3 (human) = PRKD3 (human) (UniProt O94806)
DCLK2 (human) = DCLK2 (human) (UniProt Q8N568)
PAK1 (human) = PAK1 (human) (UniProt Q13153)
PASK (human) = PASK (human) (UniProt Q96RG2)
PAK2 (human) = PAK2 (human) (UniProt Q13177)
MAPK14 (human) = MAPK14 (human) (UniProt Q16539)
RPS6KB2 (human) = RPS6KB2 (human) (UniProt Q9UBS0)
IRAK4 (human) = IRAK4 (human) (UniProt Q9NWZ3)
GRK6 (human) = GRK6 (human) (UniProt P43250)
RPS6KA1 KD1 KD2 (human) = RPS6KA1 KD1 KD2 (human) (UniProt Q15418)
MAPKAPK3 (human) = MAPKAPK3 (human) (UniProt Q16644)
JAK2 JH1 JH2 (human) = JAK2 JH1 JH2 (human) (UniProt O60674)
TAOK1 (human) = TAOK1 (human) (UniProt Q7L7X3)
TNK2 (human) = TNK2 (human) (UniProt Q07912)
CSNK1G1 (human) = CSNK1G1 (human) (UniProt Q9HCP0)
TLK2 (human) = TLK2 (human) (UniProt Q86UE8)
FER (human) = FER (human) (UniProt P16591)
ROS1 (human) = ROS1 (human) (UniProt P08922)
BLK (human) = BLK (human) (UniProt P51451)
SRPK1 (human) = SRPK1 (human) (UniProt Q96SB4)
PRKCH (human) = PRKCH (human) (UniProt P24723)
ZAP70 (human) = ZAP70 (human) (UniProt P43403)
NEK9 (human) = NEK9 (human) (UniProt Q8TD19)
WEE1 (human) = WEE1 (human) (UniProt P30291)
[1] = molecular target: JAK1 JH1 catalytic (human) (UniProt P23458)
MAPK9 (human) = MAPK9 (human) (UniProt P45984)
CAMK2B (human) = CAMK2B (human) (UniProt Q13554)
LCK (human) = LCK (human) (UniProt P06239)
DAPK1 (human) = DAPK1 (human) (UniProt P53355)
FLT1 (human) = FLT1 (human) (UniProt P17948)
CDK4 CCND1 (human) = CDK4 CCND1 (human) (UniProt P24385+P11802)
PIM1 (human) = PIM1 (human) (UniProt P11309)
PLK3 (human) = PLK3 (human) (UniProt Q9H4B4)
LYN (human) = LYN (human) (UniProt P07948)
HCK (human) = HCK (human) (UniProt P08631)
TBK1 (human) = TBK1 (human) (UniProt Q9UHD2)
CDK1 CCNA2 (human) = CDK1 CCNA2 (human) (UniProt P06493+P20248)
PDPK1 (human) = PDPK1 (human) (UniProt O15530)

Chain of TLK2 (human) (Q86UE8 whole entry, looked up): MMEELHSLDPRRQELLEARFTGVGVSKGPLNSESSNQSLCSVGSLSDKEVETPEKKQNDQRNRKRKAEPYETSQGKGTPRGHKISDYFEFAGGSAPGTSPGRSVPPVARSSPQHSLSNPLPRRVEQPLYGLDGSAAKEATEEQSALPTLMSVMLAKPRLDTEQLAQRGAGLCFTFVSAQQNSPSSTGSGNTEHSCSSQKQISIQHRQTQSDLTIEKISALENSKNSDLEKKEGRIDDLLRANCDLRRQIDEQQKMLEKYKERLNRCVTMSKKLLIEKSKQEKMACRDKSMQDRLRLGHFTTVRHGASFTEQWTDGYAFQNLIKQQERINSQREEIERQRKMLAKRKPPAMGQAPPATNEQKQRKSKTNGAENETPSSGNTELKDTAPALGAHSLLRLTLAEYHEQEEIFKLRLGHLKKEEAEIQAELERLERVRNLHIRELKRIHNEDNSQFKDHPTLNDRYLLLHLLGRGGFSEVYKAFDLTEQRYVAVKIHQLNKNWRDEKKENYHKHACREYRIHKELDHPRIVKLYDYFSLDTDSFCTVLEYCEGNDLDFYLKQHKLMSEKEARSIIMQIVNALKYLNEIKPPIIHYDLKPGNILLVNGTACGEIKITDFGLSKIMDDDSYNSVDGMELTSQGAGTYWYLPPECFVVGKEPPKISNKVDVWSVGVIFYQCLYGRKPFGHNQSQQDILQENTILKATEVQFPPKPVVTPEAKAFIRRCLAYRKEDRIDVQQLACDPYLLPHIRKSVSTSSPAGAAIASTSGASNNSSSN
Chain of DMPK (human) (Q09013 whole entry, looked up): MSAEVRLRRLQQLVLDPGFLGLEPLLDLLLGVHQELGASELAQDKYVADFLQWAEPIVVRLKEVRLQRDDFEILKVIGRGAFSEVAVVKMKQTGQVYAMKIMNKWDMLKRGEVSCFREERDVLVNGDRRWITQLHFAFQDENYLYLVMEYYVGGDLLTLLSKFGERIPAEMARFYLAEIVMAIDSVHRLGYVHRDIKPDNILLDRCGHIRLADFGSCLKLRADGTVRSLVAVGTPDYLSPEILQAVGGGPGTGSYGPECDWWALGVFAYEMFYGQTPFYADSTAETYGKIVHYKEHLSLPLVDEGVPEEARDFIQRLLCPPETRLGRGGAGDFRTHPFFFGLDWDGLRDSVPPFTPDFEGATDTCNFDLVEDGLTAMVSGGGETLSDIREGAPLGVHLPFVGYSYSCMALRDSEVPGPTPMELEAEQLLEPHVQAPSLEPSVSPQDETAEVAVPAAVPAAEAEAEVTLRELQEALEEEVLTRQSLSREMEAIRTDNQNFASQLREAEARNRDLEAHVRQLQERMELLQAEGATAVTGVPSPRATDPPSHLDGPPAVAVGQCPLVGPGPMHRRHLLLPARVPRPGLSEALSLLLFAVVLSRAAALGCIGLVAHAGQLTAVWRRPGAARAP
Chain of JAK2 JH1 JH2 (human) (O60674 whole entry, looked up): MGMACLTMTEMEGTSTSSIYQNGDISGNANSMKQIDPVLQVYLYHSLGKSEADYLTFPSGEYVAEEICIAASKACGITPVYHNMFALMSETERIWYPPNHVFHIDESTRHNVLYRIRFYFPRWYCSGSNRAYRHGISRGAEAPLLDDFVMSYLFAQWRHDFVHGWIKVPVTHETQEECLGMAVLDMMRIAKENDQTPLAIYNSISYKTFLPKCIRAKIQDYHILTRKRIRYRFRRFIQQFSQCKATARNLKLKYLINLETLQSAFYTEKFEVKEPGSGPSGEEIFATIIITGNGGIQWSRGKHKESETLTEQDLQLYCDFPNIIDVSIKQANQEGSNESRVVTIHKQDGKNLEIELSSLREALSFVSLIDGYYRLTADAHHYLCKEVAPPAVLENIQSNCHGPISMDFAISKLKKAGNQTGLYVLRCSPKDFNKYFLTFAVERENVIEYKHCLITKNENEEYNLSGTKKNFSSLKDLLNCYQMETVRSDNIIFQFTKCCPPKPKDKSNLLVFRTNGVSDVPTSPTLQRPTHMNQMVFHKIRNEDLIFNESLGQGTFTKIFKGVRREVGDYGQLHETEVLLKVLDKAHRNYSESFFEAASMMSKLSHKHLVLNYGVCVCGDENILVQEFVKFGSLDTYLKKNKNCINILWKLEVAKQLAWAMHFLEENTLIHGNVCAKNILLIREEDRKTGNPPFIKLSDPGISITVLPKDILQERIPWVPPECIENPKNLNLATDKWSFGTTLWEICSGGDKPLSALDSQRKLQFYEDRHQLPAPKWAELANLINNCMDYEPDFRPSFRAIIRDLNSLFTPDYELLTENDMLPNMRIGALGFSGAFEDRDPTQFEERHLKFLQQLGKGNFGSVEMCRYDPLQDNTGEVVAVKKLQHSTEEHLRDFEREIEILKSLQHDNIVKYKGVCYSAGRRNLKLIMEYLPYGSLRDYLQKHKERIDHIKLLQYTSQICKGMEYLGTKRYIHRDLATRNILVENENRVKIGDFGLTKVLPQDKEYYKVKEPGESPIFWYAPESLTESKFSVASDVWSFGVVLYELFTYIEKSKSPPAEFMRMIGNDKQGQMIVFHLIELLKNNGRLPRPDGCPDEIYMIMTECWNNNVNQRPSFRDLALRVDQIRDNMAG
Chain of CDK4 CCND1 (human) (P11802 whole entry, looked up): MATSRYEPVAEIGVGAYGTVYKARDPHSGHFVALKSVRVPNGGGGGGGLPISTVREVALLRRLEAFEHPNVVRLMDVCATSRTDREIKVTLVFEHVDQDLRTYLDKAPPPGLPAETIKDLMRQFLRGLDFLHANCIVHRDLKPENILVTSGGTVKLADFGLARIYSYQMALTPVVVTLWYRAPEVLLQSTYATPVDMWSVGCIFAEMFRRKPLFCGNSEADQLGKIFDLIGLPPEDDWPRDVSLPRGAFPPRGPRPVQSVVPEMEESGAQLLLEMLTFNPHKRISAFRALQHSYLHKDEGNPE
Chain of CDK4 CCND1 (human) (P24385 whole entry, looked up): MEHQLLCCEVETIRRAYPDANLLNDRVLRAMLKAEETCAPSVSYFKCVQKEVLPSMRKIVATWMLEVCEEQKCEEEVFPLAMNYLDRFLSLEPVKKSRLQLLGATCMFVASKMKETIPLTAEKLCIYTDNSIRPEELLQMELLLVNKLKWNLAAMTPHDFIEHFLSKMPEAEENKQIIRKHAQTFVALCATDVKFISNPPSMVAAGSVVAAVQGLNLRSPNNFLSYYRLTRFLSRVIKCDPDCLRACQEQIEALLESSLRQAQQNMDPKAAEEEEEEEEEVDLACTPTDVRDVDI
Chain of PASK (human) (Q96RG2 whole entry, looked up): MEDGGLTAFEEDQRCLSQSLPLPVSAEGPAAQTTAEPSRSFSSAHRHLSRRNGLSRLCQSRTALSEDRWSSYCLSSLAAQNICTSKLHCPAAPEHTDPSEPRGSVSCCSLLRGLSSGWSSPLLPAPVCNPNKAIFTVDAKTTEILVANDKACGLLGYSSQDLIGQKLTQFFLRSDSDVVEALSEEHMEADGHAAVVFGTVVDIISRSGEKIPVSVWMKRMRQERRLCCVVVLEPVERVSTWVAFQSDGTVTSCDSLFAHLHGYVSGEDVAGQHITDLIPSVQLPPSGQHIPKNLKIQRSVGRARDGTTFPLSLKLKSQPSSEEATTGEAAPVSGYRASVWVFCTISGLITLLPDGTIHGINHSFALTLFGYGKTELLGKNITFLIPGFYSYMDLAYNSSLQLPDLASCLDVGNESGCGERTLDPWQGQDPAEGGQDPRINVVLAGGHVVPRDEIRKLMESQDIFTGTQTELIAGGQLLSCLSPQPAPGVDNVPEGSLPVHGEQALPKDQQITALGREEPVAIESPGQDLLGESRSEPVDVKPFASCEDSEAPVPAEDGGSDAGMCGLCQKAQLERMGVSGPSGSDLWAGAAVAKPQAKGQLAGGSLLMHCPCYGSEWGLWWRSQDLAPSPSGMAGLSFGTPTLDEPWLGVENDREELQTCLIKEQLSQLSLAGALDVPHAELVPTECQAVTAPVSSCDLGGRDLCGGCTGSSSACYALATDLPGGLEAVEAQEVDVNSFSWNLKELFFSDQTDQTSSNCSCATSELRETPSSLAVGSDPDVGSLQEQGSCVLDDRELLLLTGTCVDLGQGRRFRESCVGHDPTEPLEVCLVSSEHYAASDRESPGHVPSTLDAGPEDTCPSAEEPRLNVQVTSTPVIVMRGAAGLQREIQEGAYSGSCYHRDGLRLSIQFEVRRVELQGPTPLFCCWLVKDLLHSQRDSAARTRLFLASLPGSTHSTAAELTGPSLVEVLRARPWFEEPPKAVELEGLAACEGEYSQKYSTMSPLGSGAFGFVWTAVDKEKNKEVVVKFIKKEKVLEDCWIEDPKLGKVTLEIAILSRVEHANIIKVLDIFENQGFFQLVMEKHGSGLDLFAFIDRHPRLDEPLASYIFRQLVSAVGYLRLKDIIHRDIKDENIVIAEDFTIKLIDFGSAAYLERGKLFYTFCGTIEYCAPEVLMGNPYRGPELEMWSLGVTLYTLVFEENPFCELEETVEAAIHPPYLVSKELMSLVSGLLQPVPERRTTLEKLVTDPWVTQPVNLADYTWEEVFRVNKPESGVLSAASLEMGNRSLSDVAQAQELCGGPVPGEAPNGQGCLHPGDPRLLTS
Chain of MAPKAPK3 (human) (Q16644 whole entry, looked up): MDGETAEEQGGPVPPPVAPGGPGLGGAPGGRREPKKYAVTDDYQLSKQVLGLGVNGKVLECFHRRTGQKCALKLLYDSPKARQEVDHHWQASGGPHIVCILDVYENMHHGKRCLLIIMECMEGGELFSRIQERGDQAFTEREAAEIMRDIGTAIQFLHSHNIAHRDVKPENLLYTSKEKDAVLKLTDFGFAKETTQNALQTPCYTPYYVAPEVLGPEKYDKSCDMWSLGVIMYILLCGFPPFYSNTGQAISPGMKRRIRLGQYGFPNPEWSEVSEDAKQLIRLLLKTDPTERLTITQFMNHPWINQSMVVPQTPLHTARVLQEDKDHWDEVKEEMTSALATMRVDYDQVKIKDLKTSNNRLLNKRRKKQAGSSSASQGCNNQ

Structure (SMILES): CC(C)N(CCC(=O)c1ccc2ccccc2c1)Cc1ccccc1
- residual activity (DMPK (human)): 108%
- residual activity (CAMK4 (human)): 98.3%
- residual activity (PDGFRA (human)): 96.5%
- residual activity (AKT1 (human)): 100%
- residual activity (PRKD3 (human)): 98.1%
- residual activity (DCLK2 (human)): 98.3%
- residual activity (PAK1 (human)): 98.3%
- residual activity (PASK (human)): 97.3%
- residual activity (PAK2 (human)): 107%
- residual activity (MAPK14 (human)): 94.4%
- residual activity (RPS6KB2 (human)): 94.3%
- residual activity (IRAK4 (human)): 103%
- residual activity (GRK6 (human)): 87.1%
- residual activity (RPS6KA1 KD1 KD2 (human)): 97.6%
- residual activity (MAPKAPK3 (human)): 95.7%
- residual activity (JAK2 JH1 JH2 (human)): 97.5%
- residual activity (TAOK1 (human)): 94.9%
- residual activity (TNK2 (human)): 92.4%
- residual activity (CSNK1G1 (human)): 101%
- residual activity (TLK2 (human)): 104%
- residual activity (FER (human)): 105%
- residual activity (ROS1 (human)): 113%
- residual activity (BLK (human)): 106%
- residual activity (SRPK1 (human)): 103%
- residual activity (PRKCH (human)): 97.3%
- residual activity (ZAP70 (human)): 93.7%
- residual activity (NEK9 (human)): 96.4%
- residual activity (WEE1 (human)): 92.1%
- residual activity [1]: 112%
- residual activity (MAPK9 (human)): 100%
- residual activity (CAMK2B (human)): 96.6%
- residual activity (LCK (human)): 98.9%
- residual activity (DAPK1 (human)): 97.9%
- residual activity (FLT1 (human)): 86%
- residual activity (CDK4 CCND1 (human)): 103%
- residual activity (PIM1 (human)): 100%
- residual activity (PLK3 (human)): 105%
- residual activity (LYN (human)): 89.3% and 98.8%
- residual activity (HCK (human)): 94.9%
- residual activity (TBK1 (human)): 92.4%
- residual activity (CDK1 CCNA2 (human)): 92.9%

Structure (SMILES): COc1cc2ncnc(Nc3cccc(Cl)c3)c2cc1OC
- residual activity (DMPK (human)): 102%
- residual activity (CAMK4 (human)): 94.4%
- residual activity (PDGFRA (human)): 93.3%
- residual activity (PDPK1 (human)): 81.9%
- residual activity (AKT1 (human)): 89.9%
- residual activity (PRKD3 (human)): 86.5%
- residual activity (DCLK2 (human)): 94.7%
- residual activity (PAK1 (human)): 89.3%
- residual activity (PASK (human)): 90.2%
- residual activity (PAK2 (human)): 90.7%
- residual activity (MAPK14 (human)): 107%
- residual activity (RPS6KB2 (human)): 105%
- residual activity (IRAK4 (human)): 77.7%
- residual activity (GRK6 (human)): 96.8%
- residual activity (RPS6KA1 KD1 KD2 (human)): 87.3%
- residual activity (MAPKAPK3 (human)): 92.7%
- residual activity (JAK2 JH1 JH2 (human)): 97.4%
- residual activity (TAOK1 (human)): 108%
- residual activity (TNK2 (human)): 28.6%
- residual activity (CSNK1G1 (human)): 99.9%
- residual activity (TLK2 (human)): 93.9%
- residual activity (FER (human)): 77.1%
- residual activity (ROS1 (human)): 91.2%
- residual activity (BLK (human)): 68.2%
- residual activity (SRPK1 (human)): 102%
- residual activity (PRKCH (human)): 104%
- residual activity (ZAP70 (human)): 102%
- residual activity (NEK9 (human)): 82.6%
- residual activity (WEE1 (human)): 92.4%
- residual activity [1]: 90.4%
- residual activity (MAPK9 (human)): 92.2%
- residual activity (CAMK2B (human)): 91.2%
- residual activity (LCK (human)): 74.9%
- residual activity (DAPK1 (human)): 108%
- residual activity (FLT1 (human)): 74.4%
- residual activity (CDK4 CCND1 (human)): 103%
- residual activity (PIM1 (human)): 91.5%
- residual activity (PLK3 (human)): 92.3%
- residual activity (HCK (human)): 61.8%
- residual activity (TBK1 (human)): 78%
- residual activity (CDK1 CCNA2 (human)): 94.9%

Structure (SMILES): Cc1ccc(Nc2nccc(N(C)c3ccc4c(C)n(C)nc4c3)n2)cc1S(N)(=O)=O
- residual activity (DMPK (human)): 93.5%
- residual activity (CAMK4 (human)): 95.9%
- residual activity (PDGFRA (human)): 13.9%
- residual activity (PDPK1 (human)): 93%
- residual activity (AKT1 (human)): 91.2%
- residual activity (PRKD3 (human)): 90%
- residual activity (DCLK2 (human)): 102%
- residual activity (PAK1 (human)): 89.1%
- residual activity (PASK (human)): 101%
- residual activity (PAK2 (human)): 98.9%
- residual activity (MAPK14 (human)): 91.2%
- residual activity (RPS6KB2 (human)): 103%
- residual activity (IRAK4 (human)): 98.4%
- residual activity (GRK6 (human)): 102%
- residual activity (RPS6KA1 KD1 KD2 (human)): 92.8%
- residual activity (MAPKAPK3 (human)): 98.5%
- residual activity (JAK2 JH1 JH2 (human)): 101%
- residual activity (TAOK1 (human)): 28.9%
- residual activity (TNK2 (human)): 90.2%
- residual activity (CSNK1G1 (human)): 100%
- residual activity (TLK2 (human)): 85.6%
- residual activity (FER (human)): 81.3%
- residual activity (ROS1 (human)): 17%
- residual activity (BLK (human)): 75.6%
- residual activity (SRPK1 (human)): 100%
- residual activity (PRKCH (human)): 110%
- residual activity (ZAP70 (human)): 92.6%
- residual activity (NEK9 (human)): 95.8%
- residual activity (WEE1 (human)): 95.3%
- residual activity [1]: 104%
- residual activity (CAMK2B (human)): 95.5%
- residual activity (LCK (human)): 43.3%
- residual activity (DAPK1 (human)): 105%
- residual activity (FLT1 (human)): 27.2%
- residual activity (CDK4 CCND1 (human)): 88.4%
- residual activity (PIM1 (human)): 100%
- residual activity (PLK3 (human)): 101%
- residual activity (LYN (human)): 52.1% and 58.9%
- residual activity (HCK (human)): 64.8%
- residual activity (TBK1 (human)): 99.5%
- residual activity (CDK1 CCNA2 (human)): 96.2%

Structure (SMILES): O=C1NC(=O)c2c1c1c3ccccc3n3c1c1c2c2ccccc2n1C1CCC3O1
- residual activity (DMPK (human)): 98.8%
- residual activity (CAMK4 (human)): 98.7%
- residual activity (PDGFRA (human)): 32.8%
- residual activity (PDPK1 (human)): 10.6%
- residual activity (AKT1 (human)): 63.9%
- residual activity (PRKD3 (human)): -0.0451%
- residual activity (DCLK2 (human)): 89.6%
- residual activity (PAK1 (human)): 23.6%
- residual activity (PASK (human)): 43.3%
- residual activity (PAK2 (human)): 43.9%
- residual activity (MAPK14 (human)): 102%
- residual activity (RPS6KB2 (human)): 35%
- residual activity (IRAK4 (human)): 14%
- residual activity (GRK6 (human)): 55.6%
- residual activity (RPS6KA1 KD1 KD2 (human)): 1.58%
- residual activity (MAPKAPK3 (human)): 93.1%
- residual activity (JAK2 JH1 JH2 (human)): 14.2%
- residual activity (TAOK1 (human)): 66.9%
- residual activity (TNK2 (human)): 2.39%
- residual activity (CSNK1G1 (human)): 96.1%
- residual activity (TLK2 (human)): 14.1%
- residual activity (FER (human)): 5.39%
- residual activity (ROS1 (human)): 1.6%
- residual activity (BLK (human)): 37.7%
- residual activity (SRPK1 (human)): 88.1%
- residual activity (PRKCH (human)): 47.6%
- residual activity (ZAP70 (human)): 88.4%
- residual activity (NEK9 (human)): 23.4%
- residual activity (WEE1 (human)): 16.9%
- residual activity [1]: 22.2%
- residual activity (MAPK9 (human)): 96.1%
- residual activity (CAMK2B (human)): 9.85%
- residual activity (LCK (human)): 36.2%
- residual activity (DAPK1 (human)): 32.7%
- residual activity (FLT1 (human)): 13.3%
- residual activity (CDK4 CCND1 (human)): 11.2%
- residual activity (PIM1 (human)): 0.435%
- residual activity (PLK3 (human)): 52.5%
- residual activity (HCK (human)): 24.8%
- residual activity (TBK1 (human)): 7.4%
- residual activity (CDK1 CCNA2 (human)): 61.7%
